Laboratory results as given in ChEMBL document CHEMBL4673347, “Discovery of new thieno[2,3-d]pyrimidine and thiazolo[5,4-d]pyrimidine derivatives as orally active phosphoinositide 3-kinase inhibitors” (Bioorg Med Chem, 2021).
In brackets after ≈: the same amount, converted by molar mass. Activity calls are given as the source filed them. The calls are words filed in the database; no cut-off is given here.

Columns and labels:
NCI-H23 = experiment: Antiproliferative activity against human NCI-H23 cells assessed as reduction in cell viability incubated for 72 hrs measured after 4 hrs of MTT addition by MTT assay; assay type: functional, cell-based
[1] = Apparent permeability across apical to basolateral side in human Caco-2 cells; assay type: ADME, cell-based
NCI-H460 = experiment: Antiproliferative activity against human NCI-H460 cells assessed as reduction in cell viability incubated for 72 hrs measured after 4 hrs of MTT addition by MTT assay; assay type: functional, cell-based
[2] = Volume of distribution at steady state in ICR mouse at 4 mg/kg, iv measured upto 24 hrs by LC-MS/MS analysis; assay type: ADME, organism-based; settings: in vivo, read-out: Vdss
Mus musculus [3] = experiment: In vivo inhibition of PI3Kalpha in BALB/c mouse assessed as increase in plasma glucose level at 40 mg/kg, po measured after 24 hrs; assay type: functional, organism-based
[4] = Oral bioavailability in ICR mouse at 40 mg/kg measured upto 24 hrs by LC-MS/MS analysis; assay type: ADME, organism-based; settings: in vivo
HGC-27 [5] = experiment: Antiproliferative activity against human HGC-27 cells assessed as reduction in cell viability incubated for 72 hrs measured after 4 hrs of MTT addition by MTT assay; assay type: functional, cell-based
MKN-45 = experiment: Antiproliferative activity against human MKN-45 cells assessed as reduction in cell viability incubated for 72 hrs measured after 4 hrs of MTT addition by MTT assay; assay type: functional, cell-based
BGC-823 = experiment: Antiproliferative activity against human BGC-823 cells assessed as reduction in cell viability incubated for 72 hrs measured after 4 hrs of MTT addition by MTT assay; assay type: functional, cell-based
A549 = experiment: Antiproliferative activity against human A549 cells assessed as reduction in cell viability incubated for 72 hrs measured after 4 hrs of MTT addition by MTT assay; assay type: functional, cell-based
NCI-H358 = experiment: Antiproliferative activity against human NCI-H358 cells assessed as reduction in cell viability incubated for 72 hrs measured after 4 hrs of MTT addition by MTT assay; assay type: functional, cell-based
HGC-27 [6] = experiment: Antitumor activity against human HGC-27 cells xenografted in BALB/c mouse assessed as tumor growth inhibition at 40 mg/kg, po administered for 25 days and measured on day 25 relative to control; assay type: functional; settings: HGC-27, po, 600 h, time 25 day, read-out: TGI
HGC-27 [7] = experiment: Induction of cell cycle arrest in human HGC-27 cells assessed as G0/G1 phase incubated for 24 hrs by propidium iodide staining based flow cytometry analysis; assay type: functional; settings: dose 20-500 nM
MG-63 = experiment: Antiproliferative activity against human MG-63 cells assessed as reduction in cell viability incubated for 72 hrs measured after 4 hrs of MTT addition by MTT assay; assay type: functional, cell-based
MDA-MB-231 = experiment: Antiproliferative activity against human MDA-MB-231 cells assessed as reduction in cell viability incubated for 72 hrs measured after 4 hrs of MTT addition by MTT assay; assay type: functional, cell-based
[8] = target: Phosphatidylinositol 4,5-bisphosphate 3-kinase catalytic subunit delta isoform (Homo sapiens, UniProt O00329); experiment: Inhibition of recombinant human full length His-tagged PI3Kdelta expressed in baculovirus expression system using PIP2 as substrate by ADP-Glo reagent based assay
Chain of Phosphatidylinositol 4,5-bisphosphate 3-kinase catalytic subunit delta isoform (O00329 whole entry, canonical isoform): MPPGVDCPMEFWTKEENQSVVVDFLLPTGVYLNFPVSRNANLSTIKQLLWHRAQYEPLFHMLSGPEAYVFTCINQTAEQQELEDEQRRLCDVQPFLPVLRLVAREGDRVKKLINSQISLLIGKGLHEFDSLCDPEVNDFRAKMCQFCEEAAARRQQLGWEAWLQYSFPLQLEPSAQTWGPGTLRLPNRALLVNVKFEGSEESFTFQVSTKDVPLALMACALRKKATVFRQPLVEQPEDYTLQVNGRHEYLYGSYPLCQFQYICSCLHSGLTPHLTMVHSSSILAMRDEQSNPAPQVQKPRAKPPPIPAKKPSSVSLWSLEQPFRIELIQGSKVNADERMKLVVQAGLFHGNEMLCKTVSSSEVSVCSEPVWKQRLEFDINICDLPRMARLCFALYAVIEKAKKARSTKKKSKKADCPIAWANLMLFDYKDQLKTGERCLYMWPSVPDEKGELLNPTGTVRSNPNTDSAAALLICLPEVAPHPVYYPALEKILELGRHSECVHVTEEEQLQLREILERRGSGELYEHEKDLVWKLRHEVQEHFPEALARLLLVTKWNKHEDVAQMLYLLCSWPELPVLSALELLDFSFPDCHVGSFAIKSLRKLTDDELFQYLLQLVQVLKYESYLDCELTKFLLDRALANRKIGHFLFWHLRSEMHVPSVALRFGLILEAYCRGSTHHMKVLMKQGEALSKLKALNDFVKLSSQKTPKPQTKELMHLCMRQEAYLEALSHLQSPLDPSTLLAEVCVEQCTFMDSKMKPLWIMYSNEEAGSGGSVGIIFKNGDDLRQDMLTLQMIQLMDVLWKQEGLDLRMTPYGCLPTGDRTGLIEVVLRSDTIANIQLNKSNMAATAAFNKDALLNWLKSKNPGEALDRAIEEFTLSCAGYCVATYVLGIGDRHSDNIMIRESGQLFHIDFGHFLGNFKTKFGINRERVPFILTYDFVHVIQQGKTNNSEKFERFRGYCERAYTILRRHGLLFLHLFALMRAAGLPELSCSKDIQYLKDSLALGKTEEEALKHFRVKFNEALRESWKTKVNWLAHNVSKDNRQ

HGC-27 [9] = experiment: Inhibition of PI3K signalling in human HGC-27 cells assessed as reduction in AKT S473 phosphorylation incubated for 3 hrs by Western blot analysis; assay type: cell-based; settings: dose 20-1000 nM
[10] = Half life in ICR mouse at 40 mg/kg, po measured upto 24 hrs by LC-MS/MS analysis; assay type: ADME, organism-based; settings: in vivo
AGS = experiment: Antiproliferative activity against human AGS cells assessed as reduction in cell viability incubated for 72 hrs measured after 4 hrs of MTT addition by MTT assay; assay type: functional, cell-based
SGC-7901 = experiment: Antiproliferative activity against human SGC-7901 cells assessed as reduction in cell viability incubated for 72 hrs measured after 4 hrs of MTT addition by MTT assay; assay type: functional, cell-based
[11] = target: Phosphatidylinositol 4,5-bisphosphate 3-kinase catalytic subunit beta isoform (Homo sapiens, UniProt P42338); experiment: Inhibition of recombinant human PI3Kbeta using PIP2 as substrate by ADP-Glo reagent based assay
Chain of Phosphatidylinositol 4,5-bisphosphate 3-kinase catalytic subunit beta isoform (P42338 whole entry, canonical isoform): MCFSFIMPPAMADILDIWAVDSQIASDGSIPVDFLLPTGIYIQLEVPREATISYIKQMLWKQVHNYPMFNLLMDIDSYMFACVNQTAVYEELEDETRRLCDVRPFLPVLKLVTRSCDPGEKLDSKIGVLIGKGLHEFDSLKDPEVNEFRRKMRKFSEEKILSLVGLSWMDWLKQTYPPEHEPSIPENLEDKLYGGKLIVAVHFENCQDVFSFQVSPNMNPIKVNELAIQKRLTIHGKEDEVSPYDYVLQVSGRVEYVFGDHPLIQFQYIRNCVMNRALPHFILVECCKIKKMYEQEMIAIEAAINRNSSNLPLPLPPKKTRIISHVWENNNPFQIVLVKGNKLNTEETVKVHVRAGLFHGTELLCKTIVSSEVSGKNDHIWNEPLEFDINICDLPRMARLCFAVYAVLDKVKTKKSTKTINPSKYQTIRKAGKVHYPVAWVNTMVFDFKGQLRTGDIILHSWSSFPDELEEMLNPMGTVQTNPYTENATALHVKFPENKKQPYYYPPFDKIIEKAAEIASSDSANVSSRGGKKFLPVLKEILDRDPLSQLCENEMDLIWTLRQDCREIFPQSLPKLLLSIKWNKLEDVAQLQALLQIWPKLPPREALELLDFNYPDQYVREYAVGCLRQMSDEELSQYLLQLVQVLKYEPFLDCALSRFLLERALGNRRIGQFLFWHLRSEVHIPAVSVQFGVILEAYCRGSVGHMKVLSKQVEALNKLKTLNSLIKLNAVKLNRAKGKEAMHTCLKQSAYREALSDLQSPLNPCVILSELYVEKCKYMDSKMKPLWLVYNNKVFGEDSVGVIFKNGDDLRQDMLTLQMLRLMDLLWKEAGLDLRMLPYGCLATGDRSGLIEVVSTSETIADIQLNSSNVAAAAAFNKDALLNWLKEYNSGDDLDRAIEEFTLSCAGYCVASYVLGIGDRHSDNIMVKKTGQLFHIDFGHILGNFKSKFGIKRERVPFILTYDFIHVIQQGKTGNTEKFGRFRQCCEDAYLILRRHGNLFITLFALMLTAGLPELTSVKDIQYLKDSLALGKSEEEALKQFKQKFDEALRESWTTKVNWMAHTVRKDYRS

[12] = AUC (0 to infinity) in ICR mouse at 4 mg/kg, iv measured upto 24 hrs by LC-MS/MS analysis; assay type: ADME, organism-based; design: route intravenous, dose 4 mg/kg, time <=24; settings: in vivo
HGC-27 [13] = experiment: Induction of apoptosis in human HGC-27 cells assessed as early apoptotic cells at 500 nM incubated for 24 hrs by annexin V-FITC and propidium iodide based staining based flow cytometry analysis (reference value: 6.22 %); assay type: functional
[14] = AUC (0 to infinity) in ICR mouse at 40 mg/kg, po measured upto 24 hrs by LC-MS/MS analysis; assay type: ADME, organism-based; design: route oral, dose 40 mg/kg, time <=24; settings: in vivo
HGC-27 [15] = experiment: Inhibition of PI3K signalling in human HGC-27 cells assessed as reduction in S6RP S235/236 phosphorylation incubated for 3 hrs by Western blot analysis; assay type: cell-based; settings: dose 20-1000 nM
[16] = AUC (0 to t) in ICR mouse at 4 mg/kg, iv measured upto 24 hrs by LC-MS/MS analysis; assay type: ADME, organism-based; design: route intravenous, dose 4 mg/kg, time <=24; settings: in vivo
HGC-27 [17] = experiment: Induction of apoptosis in human HGC-27 cells assessed as viable cells at 500 nM incubated for 24 hrs by annexin V-FITC and propidium iodide based staining based flow cytometry analysis (reference value: 83.7 %); assay type: functional; settings: read-out: Activity
[18] = Apparent permeability across basolateral to apical side in human Caco-2 cells; assay type: ADME, cell-based
[19] = Protein binding in plasma (unknown origin) assessed as unbound fraction; assay type: ADME, cell-free
SNU-638 = experiment: Antiproliferative activity against human SNU-638 cells assessed as reduction in cell viability incubated for 72 hrs measured after 4 hrs of MTT addition by MTT assay; assay type: functional, cell-based
[20] = Kinetic solubility of compound in PBS buffer at pH 7.4; assay type: physicochemical; settings: read-out: Kinetic_solubility
HGC-27 [21] = experiment: Inhibition of PI3K signalling in human HGC-27 cells assessed as reduction in 4E-BP1 phosphorylation incubated for 3 hrs by Western blot analysis; assay type: cell-based; settings: dose 20-1000 nM
[22] = AUC (0 to t) in ICR mouse at 40 mg/kg, po measured upto 24 hrs by LC-MS/MS analysis; assay type: ADME, organism-based; design: route oral, dose 40 mg/kg, time <=24; settings: in vivo
NCI-H1437 = experiment: Antiproliferative activity against human NCI-H1437 cells assessed as reduction in cell viability incubated for 72 hrs measured after 4 hrs of MTT addition by MTT assay; assay type: functional, cell-based
[23] = Clearance in ICR mouse at 4 mg/kg, iv measured upto 24 hrs by LC-MS/MS analysis; assay type: ADME, organism-based; settings: in vivo
[24] = target: Phosphatidylinositol 4,5-bisphosphate 3-kinase catalytic subunit alpha isoform (Homo sapiens, UniProt P42336); experiment: Inhibition of recombinant human full length His-tagged PI3Kalpha expressed in baculovirus expression system using PIP2 as substrate by ADP-Glo reagent based assay
Chain of Phosphatidylinositol 4,5-bisphosphate 3-kinase catalytic subunit alpha isoform (P42336 whole entry, canonical isoform): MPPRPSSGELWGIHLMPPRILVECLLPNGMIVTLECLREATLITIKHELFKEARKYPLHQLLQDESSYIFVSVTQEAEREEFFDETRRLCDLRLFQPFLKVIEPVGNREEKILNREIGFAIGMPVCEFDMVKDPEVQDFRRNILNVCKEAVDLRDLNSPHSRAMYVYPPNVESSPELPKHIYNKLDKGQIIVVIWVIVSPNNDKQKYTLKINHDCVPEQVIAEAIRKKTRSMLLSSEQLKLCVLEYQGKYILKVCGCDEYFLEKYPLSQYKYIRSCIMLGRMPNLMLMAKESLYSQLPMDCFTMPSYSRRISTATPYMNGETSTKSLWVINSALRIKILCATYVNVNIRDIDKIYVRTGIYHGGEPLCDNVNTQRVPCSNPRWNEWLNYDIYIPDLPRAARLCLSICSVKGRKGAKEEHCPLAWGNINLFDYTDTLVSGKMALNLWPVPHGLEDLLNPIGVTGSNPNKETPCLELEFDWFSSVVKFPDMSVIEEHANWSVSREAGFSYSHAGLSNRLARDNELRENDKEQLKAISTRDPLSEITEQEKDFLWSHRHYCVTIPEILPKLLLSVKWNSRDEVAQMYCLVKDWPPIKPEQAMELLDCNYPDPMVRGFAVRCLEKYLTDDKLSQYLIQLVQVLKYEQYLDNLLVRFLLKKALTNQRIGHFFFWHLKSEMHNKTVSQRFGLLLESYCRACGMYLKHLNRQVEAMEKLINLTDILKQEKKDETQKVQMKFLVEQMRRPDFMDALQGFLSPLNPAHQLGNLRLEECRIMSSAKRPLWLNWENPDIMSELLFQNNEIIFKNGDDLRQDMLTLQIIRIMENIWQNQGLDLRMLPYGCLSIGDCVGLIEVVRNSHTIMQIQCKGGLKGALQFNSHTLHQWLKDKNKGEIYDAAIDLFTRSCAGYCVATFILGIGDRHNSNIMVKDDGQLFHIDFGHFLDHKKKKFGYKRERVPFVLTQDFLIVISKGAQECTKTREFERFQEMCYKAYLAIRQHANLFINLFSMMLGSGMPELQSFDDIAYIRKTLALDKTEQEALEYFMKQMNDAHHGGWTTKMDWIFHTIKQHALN

Mus musculus [25] = experiment: In vivo inhibition of PI3Kalpha in BALB/c mouse assessed as increase in plasma glucose level at 40 mg/kg, po measured after 30 mins; assay type: functional, organism-based
HGC-27 [26] = experiment: Antitumor activity against human HGC-27 cells xenografted in BALB/c mouse assessed as reduction in Ki67 expression at 20 to 40 mg/kg, po administered for 25 days and measured on day 25 by […] immunohistochemistry; assay type: functional, organism-based; settings: dose 20-40 mg/kg, time 25.0 day

| SMILES | IC50 (NCI-H23) [µM] | Papp A→B [1] [nm/s] | IC50 (NCI-H460) [µM] | Vd [2] [L/kg] | inhibition (Mus musculus [3]) | bioavailability [4] [%] | IC50 (HGC-27 [5]) [µM] | IC50 (MKN-45) [µM] | IC50 (BGC-823) [µM] | IC50 (A549) [µM] | IC50 (NCI-H358) [µM] | inhibition in vivo at 40 mg/kg (HGC-27 [6]) [%] | Activity (HGC-27 [7]) | IC50 (MG-63) [µM] | IC50 (MDA-MB-231) [µM] | IC50 [8] [µM] | inhibition (HGC-27 [9]) | half-life [10] [h] | IC50 (AGS) [µM] | IC50 (SGC-7901) [µM] | further results |
| --- | --- | --- | --- | --- | --- | --- | --- | --- | --- | --- | --- | --- | --- | --- | --- | --- | --- | --- | --- | --- | --- |
| COc1ncc(-c2nc3c(N4CCOCC4)ncnc3s2)cc1NS(=O)(=O)c1ccc(F)cc1F | 0.58 | 214 | 0.49 | 0.513 | inactive | 54.5 | 0.04 | 1.1 | 1.1 | 0.62 | 1 | 88.7 | Dose-dependent effect | 0.36 | 0.86 | 0.001 | Dose-dependent effect | 6.3 | 0.72 | 0.64 | IC50 [11]: 0.0053 µM; AUC(0-inf) [12]: 25.3 µg·h/mL; Activity (HGC-27 [13]): 17.6%; AUC(0-inf) [14]: 142 µg·h/mL; inhibition (HGC-27 [15]): Dose-dependent effect; AUC(0-t) at 24 h [16]: 23.2 µg·h/mL; viability at 0.5 µM (HGC-27 [17]): 77.7%; Papp B→A [18]: 434 nm/s; Fu [19]: 0.3%; IC50 (SNU-638): 0.69 µM; solubility kinetic [20]: 6.31 µM (≈ 3.28 µg/mL); inhibition (HGC-27 [21]): Dose-dependent effect; AUC(0-t) at 24 h [22]: 126 µg·h/mL; IC50 (NCI-H1437): 1.1 µM; clearance [23]: 0.159 L/h/kg; IC50 [24]: 0.0017 µM; inhibition (Mus musculus [25]): Active; inhibition (HGC-27 [26]): Active |
| COc1ncc(-c2cc3c(N4CCOCC4)ncnc3s2)cc1NS(=O)(=O)c1ccc(F)cc1F | 4.4 | 211 | 4 | 0.537 | inactive | 99.5 | 0.39 | 2.6 | 4.2 | 7.8 | 5.2 | 58.2 | Dose-dependent effect | 7 | 8.2 | 0.0039 | Dose-dependent effect | 13.7 | 3.9 | 5.2 | IC50 [11]: 0.05 µM; AUC(0-inf) [12]: 14.6 µg·h/mL; Activity (HGC-27 [13]): 15.8%; AUC(0-inf) [14]: 187 µg·h/mL; inhibition (HGC-27 [15]): Dose-dependent effect; AUC(0-t) at 24 h [16]: 14.3 µg·h/mL; viability at 0.5 µM (HGC-27 [17]): 75.1%; Papp B→A [18]: 376 nm/s; Fu [19]: 0.3%; IC50 (SNU-638): 2.4 µM; solubility kinetic [20]: 10.3 µM (≈ 5.35 µg/mL); inhibition (HGC-27 [21]): Dose-dependent effect; AUC(0-t) at 24 h [22]: 143 µg·h/mL; IC50 (NCI-H1437): 2.9 µM; clearance [23]: 0.276 L/h/kg; IC50 [24]: 0.0072 µM; inhibition (Mus musculus [25]): Active; inhibition (HGC-27 [26]): Active |
